The source of these data is US5082857A, “Chemical compound” (Kyowa Hakko Kogyo Kabushiki Kaisha, priority 1989, dated 1992).

One data set in a line: in vivo. The settings on record: mouse, iv.
A further data set has as its system Sarcoma 180 tumour cells. Description: Curing effect on Sarcoma 180 tumour cells. It counts as in vivo, female mice of ddy strain. The note with it: i.v., 5 times at 24 h intervals, 10 days after inoculation. The method, then:
As test animals, female mice of ddy strain (body weight about 20 g; each group consisting of 6 mice) were used. 5×10^6 Sarcoma 180 tumour cells were, on each occasion, inoculated into the animal under the skin of the armpit. From the first to 5th days after this, a dose of phosphate-buffered physiological saline (PBS; 0.2 ml) containing a given concentration of DC114-C as shown in Table 3 was intravenously given to the test animal. The administration was effected 5 times with an interval of 24 hours between each. […] 10 days after inoculation, T/C values viz. the ratio of the average volume (mm^3) of the tumours found on the animals treated with the test compounds to the corresponding volume found on the untreated animals were measured and these are shown in the following Table 3.

The test system of another data set is Balb 3T3/H-ras cells. Put plainly: Growth inhibition against Balb 3T3/H-ras cells (neutral red). It counts as cell-based. The settings on record: Mus musculus, BALB/3T3, read-out: IC50 (concentration required for 50% inhibition of the growth of the cells); 72 hours, 37° C. As for the experimental part: Into each well of a 96 well microtitre plate was poured a Balb 3T3/H-ras cell suspension (each 0.1 ml), containing 2×10^4 cell/ml and prepared by suspending the cells in medium A. Medium A was prepared by adding to F10 medium (commercial product of Gibco) fetal calf serum (0.1 g/ml), penicillin (100 Unit/ml) and streptomycin (100 μg/ml).
On each occasion, the plate was incubated at a temperature of 37° C. for 20 hours in a carbon dioxide incubator. Then a test sample of DC114-C was suitably diluted with medium A. The diluted sample (0.05 ml) was added to each well, followed by incubation at a temperature of 37° C. for 72 hours in the incubator. After this, the supernatant was removed from the medium. Another medium (each 0.1 ml), prepared by adding to medium A neutral red (0.02%), was added to each well. The cells were dyed by incubation at a temperature of 37° C. for one hour in the incubator.
The supernatant was removed and the residue was washed once with physiological saline. After removal of the dyestuff by using a mixture of 0.001N hydrochloric acid and 30% ethanol, a micro-plate reader was applied to the material to measure the absorbance at 550 nm. The following Table 2 indicates the results obtained by comparing the absorbance of untreated cells with the absorbance of the test sample measured at various concentrations.

Data set [1] can be described thus: Solubility in various solvents.
The subject of data set [2] is Bacillus subtilis No. 10707. Put plainly: Anti-bacterial activity, MIC by agar dilution method. The settings on record: pH 7.0, read-out: minimum inhibitory concentration (MIC). Type of data set: cell-based. An excerpt:
(§1) The following Table 1 indicates minimum inhibitory concentration (MIC) of DC114-C against selected microorganisms, measured by the agar dilution method at pH 7.0.
(In agar dilution, organisms are placed on agar that contains the substance at set levels.)

Data set [3] relates to Salmonella typhi ATCC 9992. Described as above. The note with it: Salmonella enterica, pH 7.0, read-out: minimum inhibitory concentration (MIC). Type of data set: cell-based.
Description: as §1

Data set [4] deals with Staphylococcus aureus ATCC 6538P. The data set is described as above. It counts as cell-based. The settings on record: ATCC6538P, pH 7.0, read-out: minimum inhibitory concentration (MIC).
Description: as §1

In data set [5] the test system is Klebsiella pneumoniae ATCC 10031. The data set is described as above. It counts as cell-based. The note with it: ATCC10031, pH 7.0, read-out: minimum inhibitory concentration (MIC).
Description: as §1

The test system of data set [6] is Enterococcus faecium ATCC 10541. The data set is described as above. Type of data set: cell-based. The settings on record: ATCC10541, pH 7.0, read-out: minimum inhibitory concentration (MIC).
Description: as §1

Values after ≈ are worked out from the molar mass of the structure shown.

The term LD50 denotes the dose at which mortality reaches 50%. In turn, `Cc1cc2c(O)c3c(cc2c2oc(C4(C)OC4C4CO4)cc(=O)c12)C(=O)C1OC1(C1CC(=O)C(O)C(C)O1)C3O` (stereo not shown) [DC114-C] registered an LD50 in the data set “in vivo” of 17.6 mg/kg. Further, the “T/C (ratio of average tumour volume, treated to untreated)” value with Sarcoma 180 tumour cells (0.78 mg/kg each) stood at 0.56; with Sarcoma 180 tumour cells (1.56 mg/kg each), 0.48; with Sarcoma 180 tumour cells (3.13 mg/kg each), 0.26; with Sarcoma 180 tumour cells (6.25 mg/kg each), 0.15. The IC50 with Balb 3T3/H-ras cells stood at 0.06 mg/L (≈ 0.109 µM). The “Solubility in chloroform, dimethylsulfoxide (DMSO), methanol, ethyl acetate and acetone” value in data set [1] (chloroform, DMSO, methanol, ethyl acetate, acetone) is on record as “Readily soluble”. Moreover, the “Solubility in water and n-hexane” value in data set [1] (water, n-hexane) is on record as “Hardly soluble”. In addition, the MIC in [2] is 0.26 mg/L (≈ 0.472 µM); in [3] it was 8.3 mg/L (≈ 15.1 µM); in [4], 0.07 mg/L (≈ 0.127 µM); in [5] it was 4.2 mg/L (≈ 7.63 µM); in data set [6] it was 0.13 mg/L (≈ 0.236 µM).
